Patent US9107870B2, “Angiotensin peptides in treating marfan syndrome and related disorders” (TARIX PHARMACEUTICALS LTD, priority 2013, dated 2015)
Entries after “also recorded” stand apart in the source; their conditions may differ.

Tests used:
[1] = system: wild-type mice; experiment: Aortic root growth in wild-type mice by in vivo echocardiography; details: 500 μg/kg/day subcutaneous daily for 60 days, compared to wild type mice treated with placebo, FIG. 1
Source text: (§1) In this Example, a total of 20 mice were used, with 8 mice being wild-type and 12 being Fbn1^C1039G+ mice, also referred to as “Marfan mice”, that are each […] for a fibrillin-1 (Fbn1) allele encoding a cysteine substitution, Cys1039Gly (C1039G), in an epidermal growth factor-like domain of Fbn1 (Fbn1^C1039G/+).
In order to determine the effects of angiotensin (1-7) peptides, here TXA127, on the normal course of disease development, both wild-type and Marfan mice were each separated into two groups once the mice reached 2 months of age. In each of the wild-type mice and Marfan mice, the placebo control group received daily subcutaneous saline injections for 60 days, while the TXA127 group received daily subcutaneous injections of TXA127 at a dose of 500 μg/kg/day for 60 days.
The primary endpoint of this study was degree of aortic growth observed over the 60 day treatment period, as measured by in vivo echocardiography. A baseline echocardiogram was performed just prior to the beginning of the treatment period and then again just prior to sacrifice. After the 60 day treatment period, mice were sacrificed and tissue samples were taken for histological and other analysis.

[2] = system: Fbn1^C1039G/+ mice (Marfan mice); experiment: Aortic root growth in Marfan mice by in vivo echocardiography; details: 500 μg/kg/day subcutaneous daily for 60 days, compared to Marfan mice treated with placebo, FIG. 1
Source text: as §1
The Fbn1C1039G mice are a well-accepted model of Marfan Syndrome and the Fbn1 mutation is the most common class of mutation causing Marfan Syndrome. Typically, the aortic root in Fbn1C1039G mice undergoes progressive dilatation, evident as early as 2 weeks of age. […] This observed size difference generally becomes more pronounced over time. […] In addition, Fbn1C1039G mice show increased collagen deposition, which is an indirect marker of increased TGF-β signaling.
In order to determine the effects of angiotensin (1-7) peptides, here TXA127, on the normal course of disease development, both wild-type and Marfan mice were each separated into two groups once the mice reached 2 months of age. […]
The primary endpoint of this study was degree of aortic growth observed over the 60 day treatment period, as measured by in vivo echocardiography. […]

Question: Which aortic root growth [1] does the source give for “Asp^1-Arg^2-Val^3-Tyr^4-Ile^5-His^6-Pro^7 (DRVYIHP) [TXA127]” here?
Answer: The aortic root growth was “no statistically significant effect”.

Question: And the “degree of aortic root growth” value [2]?
Answer: Its value is “highly significant reduction; also recorded: essentially eliminated”.
